# In patent publication US5358936A, “Anionic furanose derivatives, methods of making and using the same” (Gordon; Paul, priority 1991, dated 1994):
# Where “and” joins values, the source holds several entries; their conditions need not be identical. Equal values may be shown once. Where a name gives a salt, the structure may show the parent alone.
# Columns and labels:
# [1] = system: peritoneal neutrophils; experiment: In vitro neutrophil chemotaxis toward zymosan-activated rat serum (Example 24); format: cell-based, mouse; conditions: for Percent Inhibition of chemotaxis: tripotassium salt
# Summary of the method: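 Peritoneal neutrophils (>90%) from mice 24 h after CFA injection; 1×10^5 cells placed above an 8 μm filter, with 20% zymosan-activated rat serum in RPMI 1640/10% FCS below. Incubated 6 h at 37 °C; Giemsa-stained cells on the filter underside counted, in duplicate. ID50 is the concentration inhibiting chemotaxis by 50%.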
# [2] = system: stomach ulcers; experiment: Gastric ulcers in rats with corona virus infection treated with indomethacin (Example 26); format: in vivo, rat
# Text: Corona virus is a non-lethal upper respiratory viral pathogen that not infrequently infects rat colonies. It is a type of rodent coryza or catarrh, the equivalent of a disease that falls somewhere between human influenza and a severe common cold. The animals of this study suffered from this condition, a circumstance which was evident by observation, and which was confirmed by virological diagnosis at the Biological Resources Laboratory of the University of Illinois at Chicago. Since stress is a common component of peptic ulcer development in both animals and man, it was concluded that this feature of the status of these experimental animals rendered them appropriate for an ulcer study.
# In this study, animals were not food deprived and were divided into treatment groups such that 15 rats received 30 mg/kg indomethacin alone (in water by oral gavage), 14 rats received indomethacin plus an injection of 25 mg/kg cimetidine subcutaneously, and 7 rats received indomethacin plus subcutaneous injection of 17.5 mg/kg of Compound III.
# All animals were sacrificed by ether euthanasia 24 hours later and their stomachs evaluated for ulcer pathology. In this study ulcers were not hemorrhagic. Results are shown below as the average number of stomach ulcers per stomach.
# [3] = system: bacterial lipopolysaccharide toxicity; experiment: Early shock symptoms (diarrhea, malaise) after bacterial endotoxin in older rabbits (Example 28 B); format: in vivo, rabbit; conditions: 10 mg/kg IV; by 48 hours; all eight controls affected; P<0.01
# Method: B. Employing the same batch of endotoxin, the same induction methodology was applied to an older, seven month old group of rabbits. […] In this study the treatment group received 10 mg/kg of Compound III, given IV, as above.
# [4] = system: rat paw; experiment: Rat paw edema provoked by neutral proteases (Example 32); format: in vivo; conditions: two hours; SOD IV; Compound III IP and IV
# Method: Both tryptic activity and collagenase activity are components of the tissue-injuring neutral proteinase activities secreted by neutrophils. Collagenase activity has also been associated with injury to cartilage; and, in another context, with the micro-injury to blood vessels that permits the extravasation and metastasis of, and by, tumor cells.
# The effects of Compound III on rat and mouse paw edema as provoked by injection of these enzymes were evaluated. SOD injected IV and Compound III injected IP and IV at zero time, (as in Example 25), inhibited edema at two hours by from 33-40 percent, in both species. […] Both drug effects were significant by t test, SOD at P<0.05 and Compound III at P<0.01.
# [5] = system: rat hind paws; experiment: Paw swelling provoked by zymosan-activated serum or normal serum (Example 23); format: in vivo; conditions: for Paw Swelling, ZAS (MPO study): 45 minutes before ZAS, ZAS alone 34.58 ± 2.45; for Paw Swelling, ZAS (MPO study) / Paw Swelling, ZAS: P < 0.01; for Swelling Change, ZAS / Swelling Change, normal serum (NS): 50 mg/kg oral
# Method: For the present studies, zymosan-activated serum (ZAS) was made by incubating reconstituted lyophilized rat serum with 10 mg/ml zymosan A for one hour at 37° C., and then microfiltering to remove the zymosan.
# In the first study, distilled water vehicle or 50 mg/kg Compound III in water were given by oral gavage to 9 control and 9 drug-treated adult male rats, respectively, and 90 minutes later the dorsoventral diameter of the hind feet were determined by Schnelltaster caliper. Sera [0.1 ml ZAS or 0.1 ml normal serum (NS)] were thereafter injected into opposite hind paws of the same rat under ether anesthesia. Below are given the paw swellings that developed at 2 and 3 hours, in response to ZAS and to normal serum, in the absence and presence of drug treatment. Data are reported previously.
# The relationship of neutrophil infiltration to ZAS-induced swelling, and its drug-inhibition, was evaluated in another study. In this study, all procedures employing ZAS and Compound III were carried out as above, except that, Compound III was administered 45 minutes before ZAS, and standardized samples of the swollen footpads were removed and subjected to analysis for myeloperoxidase activity (MPO), according to the method of Lundberg et al., Inflammation, 7:247, (1983). MPO is a neutrophil-specificenzyme, and its assay is the most widely used method of identifying the degree of neutrophil participation in organ pathology.
structure (smiles),measurement,setting,value
"CC1(C)O[C@H]2O[C@H]([C@@H](COS(=O)(=O)O)OS(=O)(=O)O)[C@H](OS(=O)(=O)O)[C@H]2O1 [Compound III, 1,2-O-(2-Propylidene)-3,5,6-tri-O-sulfo-α-D-glucofuranose, tripotassium salt]",times as potent as ibuprofen and prednisone in chemotaxis inhibition,[1],100-1000 times
same,IC50,"[1]; Mus musculus, Neutrophil, 6 h, 20 percent zymosan-activated rat serum, six hours, 37° C., read-out: ID50 (molar concentration that inhibited chemotaxis by 50 percent)",200 nM
same,inhibition at 0.01 µg/mL,"[1]; Mus musculus, Neutrophil, dose 0.01 μg/ml, read-out: Percent Inhibition of chemotaxis",1.5%
same,inhibition at 100 µg/mL,"[1]; Mus musculus, Neutrophil, dose 100.0 μg/ml, read-out: Percent Inhibition of chemotaxis",68%
same,inhibition at 200 µg/mL,"[1]; Mus musculus, Neutrophil, dose 200.0 μg/ml, read-out: Percent Inhibition of chemotaxis",60%
same,Percent Inhibition of chemotaxis,[1]; dose 1.0 μg/ml,69.0% and 65.0% and 90.0% and 88.5% and 77.0% and 63.5% and 70.0%
same,Percent Inhibition of chemotaxis,[1]; dose 10.0 μg/ml,87.0% and 76.0% and 92.5% and 97.5% and 74.5%
same,Percent Inhibition of chemotaxis,[1]; dose 100.0 μg/ml,80.5%
same,"relative activity in inhibiting neutrophil chemotaxis, in words",[1]; in vitro,more active than any of the other assayed compounds
same,"ulcer reduction compared with cimetidine, in words",[2]; 17.5 mg/kg Compound III vs 25 mg/kg cimetidine,greater using Compound III than cimetidine
same,Percent Inhibition of ulcer frequency,"[2]; indomethacin 30 mg/kg oral, cimetidine 25 mg/kg s.c. or Compound III 17.5 mg/kg s.c.",66%
same,"Ulcer Frequency per stomach, Mn ± SE","[2]; indomethacin 30 mg/kg oral, cimetidine 25 mg/kg s.c. or Compound III 17.5 mg/kg s.c. where given, P<0.02",0.86 ± 0.46 Per Stomach
same,"rabbits exhibiting symptoms of early shock (diarrhea, malaise)",[3],only one of eight
same,inhibition of edema,[4],33-40%
same,"Paw Swelling, ZAS (MPO study)","[5]; 17 mg/kg, n = 6",16.83 ± 2.12 0.1 mm
same,"Paw Swelling, ZAS (MPO study)","[5]; 50 mg/kg, n = 12",15.25 ± 3.99 0.1 mm
same,"Paw Swelling, ZAS","[5]; 2 hours post-ZAS, 50 mg/kg oral gavage 90 minutes before, control 27.22 ± 1.97",10.78 ± 1.94 0.1 mm
same,"Swelling Change, ZAS",[5]; 2 hours,-60%
same,"Swelling Change, normal serum (NS)",[5]; 2 hours,-32%
same,"Paw Swelling, normal serum (NS)","[5]; 2 hours, 50 mg/kg oral gavage, control 11.22 ± 1.28",7.67 ± 1.41 0.1 mm
same,"Paw Swelling, ZAS","[5]; 3 hours post-ZAS, 50 mg/kg oral gavage, control 28.89 ± 2.48",16.11 ± 2.94 0.1 mm
same,"Swelling Change, ZAS",[5]; 3 hours,-44%
same,"Swelling Change, normal serum (NS)",[5]; 3 hours,-17%
same,"Paw Swelling, normal serum (NS)","[5]; 3 hours, 50 mg/kg oral gavage, control 11.44 ± 1.55",9.44 ± 1.28 0.1 mm
